Test results from patent US8227510B2, “Combine use of pterostilbene and quercetin for the production of cancer treatment medicaments” (Universitat de Valencia, priority 2004, dated 2012).
Marks after values point to notes of the source that are not given here.

What was measured:
[1] = Plasma levels after oral administration in mice; type: in vivo; details: 20 mg/kg oral
Text: The mice (C57BL/6J, male, 6-8 weeks) were from Charles River Spain (Barcelona). The procedures and animal care were based on institutional standards and complied with national and international laws and policies (Directive 86/609, OJ L 358. 1 of the Council of the European Community, of 12 Dec. 1987) and the “Guide for the Care and Use of Laboratory Animals” of the National Institutes of Health (NIH, USA) (NIH Publication No. 85-23, 1985). All the animals were fed according to concentrated laboratory diets (Letica, Barcelona, Spain) allowing them free access to food and submitting them to a cycle of 12 hours of light/12 hours of darkness with ambient temperature of 22° C. The experiments were begun at 10.00 a.m. to minimize the effects of diurnal variations.
(§1) For the pharmacokinetic studies and for the daily treatment, the mice were administered i.v. (via the jugular vein, where a permanent catheter had previously been fixed by surgical methods; i.v. administration was carried out slowly for 1 minute), and orally (via stomach tube), 20 mg/kg of t-PTER (dissolved in ethanol 0.5 ml/kg of animal weight) or QUER (dissolved in dimethylsulfoxide:saline, 1:0.5 0.15 ml/kg of weight). In general, the compositions based on a combination of PTER and QUER can contain, as excipients, those stated previously or any others that are pharmaceutically acceptable. The presentation of said compositions can be, non-limitatively, in the form of solids such as tablets, capsules, pellets, pills, etc. and liquid presentations such as drops, syrups, injectables, etc. Moreover, the active principles (PTER and QUER) of the composition can be in their uncombined forms or in the form of pharmaceutically acceptable salts, including esters. The t-PTER was synthesized in our laboratory following standardized reactions of Wittig and Heck (www.orgsyn.org), whereas the QUER was obtained from Sigma Chemical Co. (San Luis, Mo., USA). The ^3H-t-PTER (2.2 Ci/mmol), labeled in the ortho and para positions of the benzene rings, was prepared in our laboratory according to a method similar to that used for the deuteration of phenols (18). ^14C-QUER (50 mCi/mmol), labeled in position 4 of the carbon ring, was obtained from the NCI Radiochemical Carcinogen Repository of Chemsyn Laboratories (Kansas City, Mo., USA). The radioactivity was measured using a Varisette 2700 TR analyzer from Packard. Blood was collected by means of the catheter in 1-ml syringes that contained heparin sodium (0.05 ml of a 5% solution in […]). The plasma and the erythrocytes were separated as described previously (19).
LC-MS/MS was carried out using a Quattro Micro triple quadrupole mass spectrometer (Micromass, Manchester, UK) equipped with an LC-10Advp pump, an SLC-10Avp control system and an SIL-10Advp autoinjector from Shimadzu. The samples were analyzed by reverse-phase high-performance liquid chromatography using a Prodigy ODS column (100×2 mm) from Phenomenex (Torrance, Calif., USA), with a particle size of 3 μm. In all cases, 40 μl was injected into the column. Column temperature was maintained at 25° C. The following gradient system was used, pumped through the column at 0.2 ml/minute (min/% A/% B/% C) (A, methanol; B, 10% acetonitrile and 90% ammonium formate 10 mM pH 3.75; C, ammonium formate 10 mM pH 3.75): 0/5/5/90, 10/5/5/90, 20/5/90/5, 30/100/0/0, 40/5/5/90. The negative ion tandem mass spectra obtained by electrospray were recorded with the electrospray capillary fixed at […] and at a temperature of the source block of 120° C. Nitrogen was used as nebulizer gas and drying gas, with flows of 300 and 30 l/h, respectively. Argon at 1.5×10^−3 mbar was used as the collision gas for collision-induced dissociation. A test was carried out based on LC-MS/MS with tracking of multiple reactions using the transitions m/z 255-240 for PTER and […] for QUER, which in both cases represent favorable fragmentation routes for these deprotonated molecules. […]

B16M-F10 cells = assay: Levels of free polyphenols in the incubation medium of B16M-F10 cultures; type: in vitro ADME; details: throughout the culture time
[2] = Extravascular (tissue) levels after intravenous administration in mice; type: in vivo; design: unit not given here; details: 20 mg/kg i.v.
Experimental: as §1
To supplement the pharmacokinetics in plasma/blood, we also evaluated the bioavailability of PTER and QUER in extravascular tissues. […] Therefore, it appears that neither of the polyphenols is subject to extravascular accumulation and that their presence in various tissues (Table 2) is parallel in time to their bioavailability in the bloodstream (FIG. 1).
The animals were treated with t-PTER or QUER (20 mg/kg, containing 5 μCi of ^3H-t-PTER or 2 μCi ^14C-QUER). A group of 4-5 mice was sacrificed at each time point. Not detectable=n.d. *P<0.01 comparing the data obtained at 10-60 minutes with the data found 5 minutes after administration of the polyphenol.

Compound	time of peak of plasma levels [1] [min]	Plasma level (total) ([1]; 5 minutes) [µM]	Plasma level, % free ([1]; 5 minutes) [% free]	Plasma level (total) ([1]; 10 minutes) [µM]	Plasma level, % free ([1]; 10 minutes)	Plasma level (total) ([1]; 30 minutes) [µM]	Plasma level, % free ([1]; 30 minutes)	Plasma level (total) ([1]; 60 minutes) [µM]	Plasma level, % free ([1]; 60 minutes)	Plasma level (total) ([1]; 120 minutes) [µM]	Plasma level, % free ([1]; 120 minutes)	Plasma level (total) ([1]; 240 minutes) [µM]	Plasma level, % free ([1]; 240 minutes)	Plasma level (total) ([1]; 480 minutes) [µM]	Plasma level, % free ([1]; 480 minutes)	Plasma level (total) ([1]; 720 minutes) [µM]	Plasma level, % free ([1]; 720 minutes)	total levels of free polyphenols in the incubation medium (metabolism by cancer cells) (B16M-F10 cells)	Extravascular level, Brain ([2]; 5 min)	Extravascular level, Kidney ([2]; 5 min)	also measured
COc1cc(/C=C/c2ccc(O)cc2)cc(OC)c1 [PTER, pterostilbene]	60	2.9 ± 0.6	67 ± 13	6.6 ± 1.8	50 ± 10 % free	11.1 ± 3.0	35 ± 5 % free	18.2 ± 2.7	17 ± 6 % free	13.3 ± 3.4	15 ± 3 % free	10.6 ± 1.2	16 ± 4 % free	7.1 ± 0.8	14 ± 4 % free	1.6 ± 0.5	12 ± 2 % free	remained unchanged	5 ± 1	3 ± 1	free PTER as percentage of the total ([1]; between 30 and 240 minutes): 15-35%; total concentration of PTER in plasma ([1]; between 30 and 240 minutes): > 10 µM; Extravascular level, Liver ([2]; 5 min): 14 ± 4; Extravascular level, Lung ([2]; 5 min): 36 ± 6; Extravascular level, Brain ([2]; 10 min): 2 ± 0.5*; Extravascular level, Kidney ([2]; 10 min): 3 ± 0.3; Extravascular level, Liver ([2]; 10 min): 7 ± 1*; Extravascular level, Lung ([2]; 10 min): 15 ± 3*; Extravascular level, Kidney ([2]; 30 min): 2 ± 0.4*; Extravascular level, Liver ([2]; 30 min): 3 ± 0.5*; Extravascular level, Lung ([2]; 30 min): 6 ± 1*; Extravascular level, Kidney ([2]; 60 min): 1 ± 0.3*; Extravascular level, Lung ([2]; 60 min): 2 ± 1*
O=c1c(O)c(-c2ccc(O)c(O)c2)oc2cc(O)cc(O)c12 [QUER, quercetin]	10	1.6 ± 0.3	22 ± 6	2.3 ± 0.7	<0.5* % free	0.6 ± 0.2	<0.5* % free	0.2 ± 0.1	<0.5* % free	0.07 ± 0.01	<0.5* % free	0.05 ± 0.02	<0.5* % free	0.05 ± 0.02	<0.5* % free	0.04 ± 0.01	<0.5* % free	remained unchanged	4 ± 1	1 ± 0.2	free QUER as percentage of the total ([1]; except for the first 5 minutes): 0.5%; levels of total QUER in plasma ([1]; first 10 minutes): > 1 µM; Extravascular level, Liver ([2]; 5 min): 9 ± 3; Extravascular level, Lung ([2]; 5 min): 15 ± 3; Extravascular level, Brain ([2]; 10 min): 2 ± 0.4*; Extravascular level, Kidney ([2]; 10 min): 1 ± 0.5; Extravascular level, Liver ([2]; 10 min): 3 ± 1*^; Extravascular level, Lung ([2]; 10 min): 8 ± 2*; Extravascular level, Liver ([2]; 30 min): 1 ± 0.2*; Extravascular level, Lung ([2]; 30 min): 2 ± 0.6*
